Laboratory results as given in ChEMBL document CHEMBL4190187, “Discovery of pyrazolopyrimidine derivatives as novel inhibitors of ataxia telangiectasia and rad3 related protein (ATR)” (Bioorg Med Chem Lett, 2017).

What was measured:
[1] = Metabolic stability in human liver microsomes assessed as compound remaining at 1 uM in presence of NADPH as cofactor measured after 30 mins by LC-MS/MS method; format: ADME, microsome; details: read-out: Stability
[2] = biological target: SRSF protein kinase 3 (Homo sapiens) (UniProt Q9UPE1); assay: Inhibition of recombinant full-length human MSSK1 at 1 uM using ERMRPRKRQGSVRRRV as substrate after 40 mins in presence of [gamma-33P]ATP by scintillation counting method
[3] = biological target: Tyrosine-protein kinase Fyn (Homo sapiens) (UniProt P06241); assay: Inhibition of recombinant full-length human Fyn at 1 uM using KVEKIGEGTYGVVYK as substrate after 40 mins in presence of [gamma-33P]ATP by scintillation counting method
[4] = biological target: Serine/threonine-protein kinase Nek9 (Homo sapiens) (UniProt Q8TD19); assay: Inhibition of recombinant human NEK9 (1 to 324 residues) at 1 uM using myelin basic protein as substrate after 40 mins in presence of [gamma-33P]ATP by scintillation counting method
[5] = biological target: Tyrosine-protein kinase ABL1 (Mus musculus) (UniProt P00520); assay: Inhibition of recombinant mouse Abl (27 to end residues) at 1 uM using EAIYAAPFAKKK as substrate after 40 mins in presence of [gamma-33P]ATP by scintillation counting method
[6] = biological target: Rhodopsin kinase GRK7 (Homo sapiens) (UniProt Q8WTQ7); assay: Inhibition of recombinant full-length human GRK7 at 1 uM using casein as substrate after 40 mins in presence of [gamma-33P]ATP by scintillation counting method
[7] = biological target: Serine/threonine-protein kinase tousled-like 1 (Homo sapiens) (UniProt Q9UKI8); assay: Inhibition of recombinant full-length human TLK1 at 1 uM using casein as substrate after 40 mins in presence of [gamma-33P]ATP by scintillation counting method
[8] = biological target: eIF-2-alpha kinase GCN2 (Homo sapiens) (UniProt Q9P2K8); assay: Inhibition of recombinant full-length human GCN2 at 1 uM using RSRSRSRSRSRSRSR as substrate after 40 mins in presence of [gamma-33P]ATP by scintillation counting method
[9] = biological target: Serine/threonine-protein kinase Nek7 (Homo sapiens) (UniProt Q8TDX7); assay: Inhibition of recombinant human NEK7 (2 to end residues) at 1 uM using FLAKSFGSPNRAYKK as substrate after 40 mins in presence of [gamma-33P]ATP by scintillation counting method
[10] = biological target: Tyrosine-protein kinase receptor UFO (Homo sapiens) (UniProt P30530); assay: Inhibition of recombinant human Axl (473 to end residues) at 1 uM using KKSRGDYMTMQIG as substrate after 40 mins in presence of [gamma-33P]ATP by scintillation counting method
[11] = biological target: Leucine-rich repeat serine/threonine-protein kinase 2 (Homo sapiens) (UniProt Q5S007); assay: Inhibition of recombinant human LRRK2 (970 to end residues) at 1 uM using RLGRDKYKTLRQIRQ as substrate after 40 mins in presence of [gamma-33P]ATP by scintillation counting method
[12] = biological target: Serine/threonine-protein kinase Sgk3 (Homo sapiens) (UniProt Q96BR1); assay: Inhibition of recombinant human SGK3 (119 to end residues) at 1 uM using GRPRTSSFAEGKK as substrate after 40 mins in presence of [gamma-33P]ATP by scintillation counting method
[13] = biological target: Myosin-IIIb (Homo sapiens) (UniProt Q8WXR4); assay: Inhibition of recombinant human MYO3B (1 to 326 residues) at 1 uM using RLGRDKYKTLRQIRQ as substrate after 40 mins in presence of [gamma-33P]ATP by scintillation counting method
[14] = biological target: PI3-kinase p110-delta/p85-alpha (Homo sapiens) (UniProt P27986+O00329); assay: Inhibition of recombinant full-length human p110d/p85a at 1 uM using phosphatidylinositol 4,5-bisphosphate as substrate after 40 mins in presence of [gamma-33P]ATP by scintillation counting method; format: protein-complex assay
[15] = biological target: Inhibitor of nuclear factor kappa-B kinase subunit alpha (Homo sapiens) (UniProt O15111); assay: Inhibition of recombinant full-length human IKKalpha at 1 uM using peptide as substrate after 40 mins in presence of [gamma-33P]ATP by scintillation counting method
[16] = biological target: Phosphatidylinositol 5-phosphate 4-kinase type-2 alpha (Homo sapiens) (UniProt P48426); assay: Inhibition of recombinant full-length human PIP4K2alpha at 1 uM using phosphatidylinositol 5-phosphate/phosphatidylserine as substrate after 40 mins in presence of [gamma-33P]ATP by scintillation counting method
[17] = biological target: Misshapen-like kinase 1 (Homo sapiens) (UniProt Q8N4C8); assay: Inhibition of recombinant human MINK (1 to 310 residues) at 1 uM using myelin basic protein as substrate after 40 mins in presence of [gamma-33P]ATP by scintillation counting method
[18] = biological target: Mitogen-activated protein kinase 1 (Homo sapiens) (UniProt P28482); assay: Inhibition of recombinant full-length human MAPK2 at 1 uM using myelin basic protein as substrate after 40 mins in presence of [gamma-33P]ATP by scintillation counting method
[19] = biological target: Dual specificity mitogen-activated protein kinase kinase 7 (Homo sapiens) (UniProt O14733); assay: Inhibition of recombinant human MKK7beta (2 to end residues) at 1 uM using inactive JNK171 as substrate after 40 mins in presence of [gamma-33P]ATP by scintillation counting method
[20] = biological target: Platelet-derived growth factor receptor beta (Homo sapiens) (UniProt P09619); assay: Inhibition of recombinant human PDGFRbeta (557 to end residues) at 1 uM using poly(Glu,Tyr) 4:1 as substrate after 40 mins in presence of [gamma-33P]ATP by scintillation counting method
[21] = biological target: Vascular endothelial growth factor receptor 2 (Homo sapiens) (UniProt P35968); assay: Inhibition of recombinant human KDR (790 to end residues) at 1 uM using myelin basic protein as substrate after 40 mins in presence of [gamma-33P]ATP by scintillation counting method
[22] = biological target: Serine/threonine-protein kinase MARK2 (Homo sapiens) (UniProt Q7KZI7); assay: Inhibition of recombinant full-length human PAR-1Balpha at 1 uM using KKKVSRSGLYRSPSMPENLNRPR as substrate after 40 mins in presence of [gamma-33P]ATP by scintillation counting method
[23] = biological target: Serine/threonine-protein kinase TBK1 (Homo sapiens) (UniProt Q9UHD2); assay: Inhibition of recombinant full-length human TBK1 at 1 uM using KRRRALS(p)VASLPGL as substrate after 40 mins in presence of [gamma-33P]ATP by scintillation counting method
[24] = biological target: LIM domain kinase 1 (Homo sapiens) (UniProt P53667); assay: Inhibition of recombinant human LIMK1 (285 to 638 residues) at 1 uM using cofilin as substrate after 40 mins in presence of [gamma-33P]ATP by scintillation counting method

Sequence of Inhibitor of nuclear factor kappa-B kinase subunit alpha (Homo sapiens) (O15111 whole entry): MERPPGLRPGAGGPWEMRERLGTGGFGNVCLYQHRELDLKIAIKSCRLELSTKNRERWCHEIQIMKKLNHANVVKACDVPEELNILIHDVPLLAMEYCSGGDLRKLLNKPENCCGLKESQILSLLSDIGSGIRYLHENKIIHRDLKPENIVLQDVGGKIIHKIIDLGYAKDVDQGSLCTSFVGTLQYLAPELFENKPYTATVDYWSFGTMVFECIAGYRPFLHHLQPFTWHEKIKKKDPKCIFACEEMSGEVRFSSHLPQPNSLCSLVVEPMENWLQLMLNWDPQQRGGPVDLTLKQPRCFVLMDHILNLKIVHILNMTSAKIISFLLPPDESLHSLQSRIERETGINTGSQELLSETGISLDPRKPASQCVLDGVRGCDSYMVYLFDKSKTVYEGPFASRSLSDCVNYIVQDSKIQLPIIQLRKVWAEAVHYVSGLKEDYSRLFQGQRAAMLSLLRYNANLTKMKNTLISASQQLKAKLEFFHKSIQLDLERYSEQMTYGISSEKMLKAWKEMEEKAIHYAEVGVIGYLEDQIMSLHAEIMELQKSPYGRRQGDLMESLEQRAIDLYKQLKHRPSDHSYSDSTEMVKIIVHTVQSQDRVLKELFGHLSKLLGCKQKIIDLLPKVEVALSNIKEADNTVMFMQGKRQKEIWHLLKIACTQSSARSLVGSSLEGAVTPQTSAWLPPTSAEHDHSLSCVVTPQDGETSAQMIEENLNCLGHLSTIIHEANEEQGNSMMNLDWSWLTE
Sequence of Leucine-rich repeat serine/threonine-protein kinase 2 (Homo sapiens) (Q5S007 whole entry): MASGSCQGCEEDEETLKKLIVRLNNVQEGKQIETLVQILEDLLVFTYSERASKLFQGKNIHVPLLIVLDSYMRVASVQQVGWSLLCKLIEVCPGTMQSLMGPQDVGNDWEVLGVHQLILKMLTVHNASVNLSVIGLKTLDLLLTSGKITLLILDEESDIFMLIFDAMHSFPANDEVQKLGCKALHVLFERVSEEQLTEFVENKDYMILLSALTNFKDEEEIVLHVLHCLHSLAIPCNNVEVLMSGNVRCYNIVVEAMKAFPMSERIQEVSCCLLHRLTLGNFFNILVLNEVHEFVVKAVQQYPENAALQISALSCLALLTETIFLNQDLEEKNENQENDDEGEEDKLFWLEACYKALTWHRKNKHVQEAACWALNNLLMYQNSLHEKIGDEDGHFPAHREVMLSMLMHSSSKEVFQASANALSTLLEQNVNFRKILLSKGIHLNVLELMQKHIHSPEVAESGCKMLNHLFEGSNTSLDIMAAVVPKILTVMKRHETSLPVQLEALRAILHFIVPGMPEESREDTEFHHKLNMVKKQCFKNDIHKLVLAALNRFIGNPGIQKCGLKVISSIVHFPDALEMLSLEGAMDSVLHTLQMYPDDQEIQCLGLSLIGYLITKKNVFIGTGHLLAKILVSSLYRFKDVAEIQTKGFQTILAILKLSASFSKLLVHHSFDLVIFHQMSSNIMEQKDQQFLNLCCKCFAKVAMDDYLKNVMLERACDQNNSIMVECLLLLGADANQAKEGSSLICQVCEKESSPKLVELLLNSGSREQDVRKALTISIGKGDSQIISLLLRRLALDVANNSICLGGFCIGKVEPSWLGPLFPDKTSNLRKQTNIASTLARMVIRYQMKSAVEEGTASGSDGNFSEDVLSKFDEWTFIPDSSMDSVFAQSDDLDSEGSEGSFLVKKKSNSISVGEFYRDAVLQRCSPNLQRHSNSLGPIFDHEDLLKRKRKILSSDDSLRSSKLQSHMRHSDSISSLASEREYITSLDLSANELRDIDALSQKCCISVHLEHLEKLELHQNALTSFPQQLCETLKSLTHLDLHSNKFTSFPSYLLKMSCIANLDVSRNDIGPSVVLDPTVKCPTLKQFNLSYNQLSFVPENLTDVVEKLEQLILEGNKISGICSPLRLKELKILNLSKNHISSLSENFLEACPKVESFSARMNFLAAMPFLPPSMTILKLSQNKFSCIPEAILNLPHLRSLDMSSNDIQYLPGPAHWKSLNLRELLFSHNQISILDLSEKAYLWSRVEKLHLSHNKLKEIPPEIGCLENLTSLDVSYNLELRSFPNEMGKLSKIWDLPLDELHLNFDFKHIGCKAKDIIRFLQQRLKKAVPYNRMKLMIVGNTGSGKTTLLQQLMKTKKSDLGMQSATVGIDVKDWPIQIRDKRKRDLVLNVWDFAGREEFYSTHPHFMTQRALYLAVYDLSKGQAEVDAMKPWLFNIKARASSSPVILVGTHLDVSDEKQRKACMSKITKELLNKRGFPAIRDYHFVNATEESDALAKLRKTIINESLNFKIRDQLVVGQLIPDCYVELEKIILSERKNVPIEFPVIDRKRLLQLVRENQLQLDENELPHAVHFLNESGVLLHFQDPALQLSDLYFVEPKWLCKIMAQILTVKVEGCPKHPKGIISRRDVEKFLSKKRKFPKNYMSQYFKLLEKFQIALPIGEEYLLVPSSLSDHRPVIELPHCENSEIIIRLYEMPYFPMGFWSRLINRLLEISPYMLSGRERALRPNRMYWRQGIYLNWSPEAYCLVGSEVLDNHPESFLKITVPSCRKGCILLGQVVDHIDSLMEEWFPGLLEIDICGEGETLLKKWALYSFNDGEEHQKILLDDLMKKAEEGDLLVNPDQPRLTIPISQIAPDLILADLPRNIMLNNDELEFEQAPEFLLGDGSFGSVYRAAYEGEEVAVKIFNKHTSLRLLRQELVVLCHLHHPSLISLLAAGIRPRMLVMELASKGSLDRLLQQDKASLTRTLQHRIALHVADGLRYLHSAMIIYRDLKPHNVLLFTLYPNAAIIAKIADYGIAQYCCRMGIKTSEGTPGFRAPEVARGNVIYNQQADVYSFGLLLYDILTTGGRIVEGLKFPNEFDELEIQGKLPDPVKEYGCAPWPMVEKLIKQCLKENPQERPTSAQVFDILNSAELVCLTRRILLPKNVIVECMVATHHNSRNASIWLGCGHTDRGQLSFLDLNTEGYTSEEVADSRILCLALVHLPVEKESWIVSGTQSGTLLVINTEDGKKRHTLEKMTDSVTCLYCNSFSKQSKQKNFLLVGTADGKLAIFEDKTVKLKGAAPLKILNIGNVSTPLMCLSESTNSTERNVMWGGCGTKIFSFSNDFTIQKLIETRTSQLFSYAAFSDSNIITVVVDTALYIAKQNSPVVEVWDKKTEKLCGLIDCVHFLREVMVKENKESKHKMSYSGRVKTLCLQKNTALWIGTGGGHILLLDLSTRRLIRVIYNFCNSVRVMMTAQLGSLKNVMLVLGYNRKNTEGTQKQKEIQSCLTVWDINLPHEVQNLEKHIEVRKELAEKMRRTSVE
Sequence of Tyrosine-protein kinase ABL1 (Mus musculus) (P00520 whole entry): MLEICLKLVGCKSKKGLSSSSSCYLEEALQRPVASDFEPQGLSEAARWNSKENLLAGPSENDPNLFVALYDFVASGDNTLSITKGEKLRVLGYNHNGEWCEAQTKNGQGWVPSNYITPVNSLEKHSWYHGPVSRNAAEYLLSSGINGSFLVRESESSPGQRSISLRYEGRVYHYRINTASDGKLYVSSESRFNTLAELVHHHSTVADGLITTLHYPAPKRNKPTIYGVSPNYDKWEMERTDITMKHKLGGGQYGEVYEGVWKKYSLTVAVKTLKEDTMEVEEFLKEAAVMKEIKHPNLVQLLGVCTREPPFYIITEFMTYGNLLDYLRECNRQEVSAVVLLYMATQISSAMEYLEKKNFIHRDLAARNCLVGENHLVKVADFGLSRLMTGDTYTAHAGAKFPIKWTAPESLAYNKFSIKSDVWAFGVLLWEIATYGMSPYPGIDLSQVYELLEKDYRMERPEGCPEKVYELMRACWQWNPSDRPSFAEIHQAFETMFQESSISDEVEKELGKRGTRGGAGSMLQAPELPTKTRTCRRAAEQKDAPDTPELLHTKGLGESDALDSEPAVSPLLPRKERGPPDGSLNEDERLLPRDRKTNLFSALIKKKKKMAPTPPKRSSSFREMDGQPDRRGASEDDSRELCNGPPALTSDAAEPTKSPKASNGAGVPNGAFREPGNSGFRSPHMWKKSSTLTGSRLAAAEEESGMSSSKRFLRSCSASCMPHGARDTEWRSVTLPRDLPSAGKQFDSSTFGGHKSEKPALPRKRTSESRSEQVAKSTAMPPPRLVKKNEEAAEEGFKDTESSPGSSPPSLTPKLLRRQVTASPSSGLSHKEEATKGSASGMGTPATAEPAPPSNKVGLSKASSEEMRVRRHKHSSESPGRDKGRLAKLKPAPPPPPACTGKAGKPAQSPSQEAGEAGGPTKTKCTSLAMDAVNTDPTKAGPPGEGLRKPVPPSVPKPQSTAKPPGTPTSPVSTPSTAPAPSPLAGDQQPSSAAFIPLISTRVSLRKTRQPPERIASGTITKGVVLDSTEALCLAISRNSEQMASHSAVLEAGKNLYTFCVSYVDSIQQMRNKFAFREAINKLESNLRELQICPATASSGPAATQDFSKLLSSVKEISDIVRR
Sequence of Serine/threonine-protein kinase Sgk3 (Homo sapiens) (Q96BR1 whole entry, the tested form may be a part): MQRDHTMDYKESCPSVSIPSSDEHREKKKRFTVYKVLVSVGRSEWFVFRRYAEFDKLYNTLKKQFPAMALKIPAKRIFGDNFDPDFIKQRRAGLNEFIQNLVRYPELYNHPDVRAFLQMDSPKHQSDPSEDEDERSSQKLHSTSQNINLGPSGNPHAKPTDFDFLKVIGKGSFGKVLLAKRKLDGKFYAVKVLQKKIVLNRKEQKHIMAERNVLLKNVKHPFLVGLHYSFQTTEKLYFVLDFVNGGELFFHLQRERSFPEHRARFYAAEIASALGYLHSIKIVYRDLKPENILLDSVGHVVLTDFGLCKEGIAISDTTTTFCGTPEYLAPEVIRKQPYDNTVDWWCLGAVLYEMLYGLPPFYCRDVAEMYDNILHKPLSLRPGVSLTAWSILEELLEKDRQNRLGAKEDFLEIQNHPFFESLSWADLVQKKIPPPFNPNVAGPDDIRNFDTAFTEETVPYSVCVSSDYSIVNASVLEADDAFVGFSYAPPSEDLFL

Work on `CS(=O)(=O)c1ccc(-n2nc(-c3cnc4[nH]ccc4c3)c3c(N)ncnc32)cc1` yielded a remaining at 0.5 h, 1 µM [1] of 83%, an inhibition [2] of -8% and an inhibition [3] of 90%. For the same compound, the inhibition [4] was 11%, the inhibition [5] was 85% and the inhibition [6] was -3%. The inhibition [7] was 3%, the inhibition [8] was 2% and the inhibition [9] was -1%. The inhibition [10] was 9%, the inhibition [11] was 22% and the inhibition [12] was 12%. For the same compound, the inhibition [13] was 5%, the inhibition [14] was 42% and the inhibition [15] was -5%. It also gave an inhibition [16] of -2%, an inhibition [17] of -10% and an inhibition [18] of 1%. For the same compound, the inhibition [19] was -4%, the inhibition [20] was -7% and the inhibition [21] was 72%. It also gave an inhibition [22] of 6%, an inhibition [23] of -4% and an inhibition [24] of 24%.
